We go through one molecule from paper PMC11476419, “Analysis of Punicalin and Punicalagin Interaction with PDIA3 and PDIA1” (International Journal of Molecular Sciences, 2024).

Molecules are shown by their SMILES.

The target in test [1] is T1, PDIA3 (Homo sapiens, UniProt P30101).
T1 construct: The mature recombinant form (devoid of the N-terminal presence) of the human PDIA3 protein was expressed and purified; made in house
T1 sequence (P30101 25-505): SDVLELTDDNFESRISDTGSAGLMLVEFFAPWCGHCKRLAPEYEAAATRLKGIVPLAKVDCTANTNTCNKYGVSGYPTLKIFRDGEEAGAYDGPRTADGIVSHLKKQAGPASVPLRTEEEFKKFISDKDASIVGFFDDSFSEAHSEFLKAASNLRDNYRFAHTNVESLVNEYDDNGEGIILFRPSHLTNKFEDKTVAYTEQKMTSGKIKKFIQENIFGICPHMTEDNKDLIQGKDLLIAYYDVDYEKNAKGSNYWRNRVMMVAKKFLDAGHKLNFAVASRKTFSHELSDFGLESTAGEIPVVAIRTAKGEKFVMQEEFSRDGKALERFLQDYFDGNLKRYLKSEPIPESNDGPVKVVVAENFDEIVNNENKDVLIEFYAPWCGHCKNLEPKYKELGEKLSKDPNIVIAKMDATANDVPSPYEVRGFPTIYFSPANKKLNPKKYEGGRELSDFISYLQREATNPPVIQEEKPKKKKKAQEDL
Nature of the test: Glutathione reduction assay (di-E-GSSG), disulfide reductase activity. The format is biochemical. The settings on record: di-E-GSSG substrate, PDIA3 20 nM, reducing conditions. As for the experimental part:
(§1) The enzymatic activity of PDIA proteins was evaluated by glutathione reduction and insulin turbidity assays. PDIA1 and PDIA3 are proteins capable of catalyzing oxidation-reduction and isomerization reactions through thiol groups and disulfide bonds. Because the action of punicalagin on the reductase activity of the two proteins was previously evaluated by glutathione reduction assay, the same assay was repeated using punicalin to compare the effect of both molecules on PDIs.
(§2) Di-eosin glutathione disulfide (di-E-GSSG) was synthesized by the reaction of eosin isothiocyanate with oxidized glutathione (GSSG) and used as a fluorogenic substrate of PDIs to monitor disulfide reductase activity according to the method of Raturi and Mutus, with some modifications. Protein activity was evaluated by monitoring the emission fluorescence increase (λem = 545 nm and λex = 525 nm), and the effect of punicalin (concentration ranging from 2 to 50 µM) was tested.
(§3) In both assays, the inhibition constants were extrapolated by GraphPad Prism 8.0 software (GraphPad Software, San Diego, CA, USA), plotting the obtained data as logarithm dose–response curves.

The target of test [2] is T2, PDIA1 (Homo sapiens, UniProt P07237).
T2 construct: The mature human PDIA1 with an N-terminal His6x-tag was expressed and purified; His6 (N); made in house
T2 sequence (P07237 18-508): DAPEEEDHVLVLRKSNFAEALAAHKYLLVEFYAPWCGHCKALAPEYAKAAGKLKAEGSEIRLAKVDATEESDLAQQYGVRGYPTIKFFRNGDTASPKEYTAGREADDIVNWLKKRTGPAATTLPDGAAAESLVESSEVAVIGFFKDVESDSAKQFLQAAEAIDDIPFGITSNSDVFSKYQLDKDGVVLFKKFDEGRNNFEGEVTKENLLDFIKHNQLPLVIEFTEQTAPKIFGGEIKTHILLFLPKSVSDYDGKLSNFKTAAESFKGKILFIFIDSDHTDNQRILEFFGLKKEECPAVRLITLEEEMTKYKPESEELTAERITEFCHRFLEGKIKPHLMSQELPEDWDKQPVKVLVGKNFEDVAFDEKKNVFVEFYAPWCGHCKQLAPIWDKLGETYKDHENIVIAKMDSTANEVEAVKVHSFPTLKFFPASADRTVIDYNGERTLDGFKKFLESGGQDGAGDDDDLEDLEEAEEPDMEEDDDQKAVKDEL
The description is as above. The settings on record: di-E-GSSG substrate, PDIA1 20 nM, reducing conditions. Format: biochemical. As for the experimental part:
as §1, §2, §3

Another test has as its system PDIA3 in U87 MG cells. As to the kind of experiment: Cellular distribution of PDIA3 by immunofluorescence. Format: cell-based, human. Conditions: 5 µM for 48 h and 20 µM for 24 h. As for the experimental part: (§4) Possible changes in the cellular distribution of PDIA3 were previously studied by immunofluorescence assay. Recently, Bilches Medinas et al. reported that a PDIA3 mutation with the loss of functions induced protein aggregation. […] T98G and U87 MG cells were treated with 5 µM and 20 µM of punicalin for 48 h and 24 h, respectively (Figure 8).
(§5) T98G and U-87 MG cells were seeded on coverslips into 6-well plates (200,000 cells/well) and incubated for 24 h and 48 h in the presence of 5 µM and 20 µM punicalagin/punicalin. Cells grown on coverslips were washed with PBS, fixed with 3.7% formaldehyde for 20 min, rinsed with PBS, and then permeabilized with cold methanol (−20 °C) for 5 min. Immunofluorescence analysis was performed according to Paglia et al. using a specific primary antibody against PDIA3 (Millipore, Milan, Italy, cat. ABE1032). Coverslips were mounted on glass microscope slides with DuolinkTM mounting medium and examined using a fluorescence microscope (Leica AF6000 Modular System, Leica, Milan, Italy) with a 63× oil immersion objective. Samples were captured under the same acquisition parameters.

The test system of the next test is PDIA3 in T98G cells. The description is as above. Format: cell-based, human. Conditions: 5 µM for 48 h and 20 µM for 24 h. As for the experimental part: as §4, §5
The target of test [3] is T1, PDIA3. Nature of the test: Differential scanning fluorimetry (protein thermal shift). The format is binding. As for the experimental part: (§6) The effect of punicalin and punicalagin on the stability of both proteins was evaluated by differential scanning fluorimetry (DSF). Initially, PDIA1 and PDIA3 were incubated at 25 °C for 20 min with both substances at 5 µM and 20 µM concentrations. […] The reading was optimized at intervals of 0.2 °C every 5 s. Once the fluorescence profile was obtained, the data were analyzed with the GraphPad prism program, by either fitting data with a Boltzmann equation or calculating the first derivative. In DSF analyses, a gradual increase in fluorescence is observed, due to a conformational change in the protein, which reaches a maximum value and then decreases because of protein precipitation.
(§7) To evaluate Tm, we focused the attention on the main transition, and thus we fitted, with a Boltzmann equation, the data in the range of 25–55 °C for PDIA3 and in the range of 45–70 °C for PDIA1. Again, the two substances show a destabilizing effect, which was more evident for PDIA3 than for PDIA1. In fact, punicalagin and punicalin at a 20 µM concentration cause a shift of Tm of at least 6 °C in the case of PDIA3, while this is approximately 3 °C for PDIA1 (Figure 7).
(§8) Protein stability in the absence and presence of punicalagin/punicalin was tested by means of the fluorescence-based thermal stability assay or differential scanning fluorimetry (DSF) developed by Pantoliano and coworkers. DSF records the fluorescence emission signal from the binding of a dye (SYPRO orange) to the exposed hydrophobic patches upon protein unfolding. Fluorescence measurements were performed using a CFX96 Connect RT-PCR instrument (BioRad, Hercules, CA, USA). Aliquots of 18 μL of protein solution (2 μM), freshly diluted in Tris Buffered saline (50 mM TrisHCl, pH 8.0, 150 mM NaCl) containing 0.1 mM DTT, 0.2 mM EDTA, and 1: 1000 dilution of SYPRO Orange (50 mM stock solution in DMSO), were distributed in a 96-well plate. Sample wells were added with punicalagin or punicalin at a final concentration of 5 uM or 20 μM by adding 2 μL of a 10-fold concentrated freshly prepared stock solution. As control, the protein solution was added with 2 μL of the dilution buffer. A melting point analysis was recorded by increasing the temperature from 25 to 70 °C with an increment of 0.2 °C every 5 s and reading, at each temperature, the fluorescence in fluorescence resonance energy transfer mode (FRET). Each measure was the average of three sample well readings, and each DSF experiment was repeated at least three times. To calculate Tm values, DSF data from the melting curve were exported and fitted to a Boltzmann equation using GraphPad software. The effect of punicalagin and punicalin was evaluated comparing the Tm values in the presence and absence of each molecule.
On the technique in general: DSF heats the sample and reads unfolding from a dye or from intrinsic fluorescence.

Test [4] addresses T2, PDIA1. The test is described as above. The format is binding. The settings on record: PDIA1, compound 20 µM. As for the experimental part: as §6, §7, §8

As usually defined, the IC50 is the concentration that gives 50% inhibition. Read a low IC50 as greater potency. In the case of `O=C1OC[C@H]2OC(O)[C@H](O)[C@@H](O)[C@@H]2OC(=O)c2cc(O)c(O)c(O)c2-c2c(O)c(O)c3oc(=O)c4c(c(O)c(O)c5oc(=O)c2c3c54)-c2c1cc(O)c(O)c2O` (mixture of isomers) [Punicalin, punicalin], the half-inhibitory concentration (IC50) was 10.7 µM on PDIA3 [1] and 58.3 µM against PDIA1 [2]. For the same molecule, the “change in cellular distribution of PDIA3” value in the test with PDIA3 in U87 MG cells is “marked change in the fluorescence pattern and a cellular redistribution of PDIA3”; in the test on PDIA3 in T98G cells it was “marked change in the fluorescence pattern and a cellular redistribution of PDIA3”. For the same molecule, the “left shift of first transition (first-derivative graph)” value at PDIA3 [3] (PDIA3, compound 20 µM) is “about 3 °C”. For the same molecule, the “shift towards lower temperature of second transition (first-derivative graph)” value on PDIA3 [3] (PDIA3, compound 20 µM) was “more than 10 °C”. Besides, the “shift of Tm (destabilizing, Boltzmann fit)” value on PDIA3 [3] (PDIA3, compound 20 µM, fit range 25–55 °C) is “at least 6 °C”; at PDIA1 [4] (fit range 45–70 °C) it was “approximately 3 °C”. For the same molecule, the “Tm of PDIA3 after addition of compound” value at PDIA3 [3] (PDIA3 alone Tm 46 °C) is “below 40 °C”. Moreover, the “change in the thermal stability of PDIA3, shift” value at PDIA3 [3] (abstract statement) is “up to 8 °C”. Further, the “shift towards lower temperature of second main transition (first-derivative graph)” value at PDIA1 [4] is “about 5 °C”.
